Read-outs that look alike come from different tables or passages of the source.
Tests used:
[1] = system: rats with ischemia/reperfusion or permanent occlusion of the middle cerebral artery; conditions: cited from earlier work
[2] = system: Wistar rats with spinal cord injury; assay: Spinal cord injury model (20 g compression on lower thoracic cord for 20 minutes); format: in vivo, rat
Text: The present inventors have investigated the effects of repetitive or continuous intravenous administration of ginsenoside Rb1 using rats with spinal cord injury and the effects were compared with those of repetitive or continuous intravenous administration of a crude saponin fraction of medicinal ginseng. If pressure is loaded on certain spinal segments such as the lower thoracic cord, not only nerve cells (neurons) in the gray matter of the same region but also fiber tracts or pathways in the white matter of the same region are damaged. The damages to the fiber tracts or pathways of the white matter are further developed to the distal portions (caudal portions) as well as causing the secondary degeneration of the origins of the fiber tract or pathways, namely the upper nerve cell bodies (i.e. origins) which project fibers (nerve processes) to the fiber tracts or pathways. As a result, the damages to the fiber tracts or pathways of the white matter in the lower thoracic cord, which received compression loading, induce the secondary degeneration of the origins (nerve cell bodies) sending fibers (also termed nerve processes or axons) to the fiber tracts or pathways as well as the secondary degeneration of fiber tracts located distal to the lower thoracic cord (i.e. lumbar cord and sacral cord) to cause paraplegia of both limbs. Further, since the innervation from the brain regions proximal to the lumbar cord and sacral cord is cut off due to damage to the lower thoracic cord, the secondary degeneration of nerve cells in the gray matters of the lumbar cord and sacral cord is further induced, as a result, paraplegia of the limbs can not be recovered. For that model of the spinal cord injury, the present inventors have used male Wistar rats (body weight about 300 g) loaded with 20 g of compression on the lower thoracic cord for 20 minutes.
Under inhalation anesthesia by a mixture of nitrous oxide and halothane, the rats were loaded with 20 g of compression on the lower thoracic cord for 20 minutes. After more than 30 minutes passed, ginsenoside Rb1 dissolved in physiological saline was injected once into the left femoral vein (12 μg or 60 μg), thereafter continuous or repetitive intravenous administration of ginsenoside Rb1 was performed for 7 days by using an Alza osmotic minipump (12 μg/day or 60 μ/day). Control animals and sham-operated animals were administered with the same amount of physiological saline (vehicle) alone. The open field locomotor scores [Basso, Bettie and Bresnakan (BBB) scores] were measured in each animal before loading spinal cord injury, on the day of spinal cord injury and from 1st day to 7th day after the spinal cord injury for use as an index of motor functions (Basso D. M. et al., J. Neurotrauma, 13, 343-359, 1996). BBB scores of the sham-operated rats (normal rats) were 20-21.
Under inhalation anesthesia by a mixture of nitrous oxide and halothane, the rats were loaded with 20 g of compression on the lower thoracic cord for 20 minutes. More than 30 minutes later, the crude saponin fraction dissolved in physiological saline was infused once into the left femoral vein (870 μg), thereafter continuous intravenous administration of the crude saponin fraction was performed for 7 days by using an Alza osmotic minipump (870 μg/day). Control animals with spinal cord injuries were administered with the same amount of physiological saline (vehicle) alone. […] These figures are photographs in place of drawings.
Under inhalation anesthesia by a mixture of nitrous oxide and halothane, wistar rats (body weight about 300 g) were loaded with 20 g of compression on the lower thoracic cord for 20 minutes. After they were awakened from anesthesia, the rats with paraplegia in both hindlimbs were allowed to stay for 1 hour and 40 minutes in the cage. […]

[3] = system: SH-SP rats with MCA permanent occlusion; assay: Cerebral infarct lesion and brain edema after ginsenoside Rb1 (intravenous or intracerebroventricular); format: in vivo, rat; conditions: intravenous 6 μg/day for 28 days after MCA permanent occlusion
Method: Male SH-SP rats, at the age of 12-13 weeks, were used. Animals were bred in a room furnished with 12 hours light and dark cycles and water and feeds were supplied ad libitum. The cortical branch of the left middle cerebral artery (MCA) of SH-SP rats were coagulated and cut under inhalation anesthesia. Immediately after MCA permanent occlusion, ginsenoside Rb1 dissolved in physiological saline was infused once intravenously (6 μg or 60 μg), subsequently intravenously infused continuously for 28 days by using an Alza osmotic minipump (6 μg/day or 60 μg/day).
At 32 days after MCA permanent occlusion, the SH-SP rats were anesthetized with chloral hydrate, and they were perfused and fixed transcardially with 0.1 mole phosphate buffer containing 4% paraformaldehyde. The brains were dissected out and cerebrocortical infarct lesions were photographed.
In Japanese Patent Application No. Hei 10-365560, PCT/JP99/02550 (Brain cell or nerve cell-protective agents comprising ginsenoside Rb1), Japanese Patent Application No. Hei 11-340850, PCT/JP99/06804 (Cerebrovascular regeneration/reconstruction promoters and nerve tissue secondary degeneration inhibitors comprising ginsenoside Rb1), the present inventors (Sakanaka and Tanaka) measured areas of the left cerebral hemispheres and the left cerebrocortical infarct lesions on the photographs by using an image analyzer. […]

[4] = intravenous administration (Saito et al. 1980); cited from earlier work

In the case of `CC(C)=CCC[C@](C)(O[C@@H]1O[C@H](CO[C@@H]2O[C@H](CO)[C@@H](O)[C@H](O)[C@H]2O)[C@@H](O)[C@H](O)[C@H]1O)[C@H]1CC[C@]2(C)[C@@H]1[C@H](O)C[C@@H]1[C@@]3(C)CC[C@H](O[C@@H]4O[C@H](CO)[C@@H](O)[C@H](O)[C@H]4O[C@@H]4O[C@H](CO)[C@@H](O)[C@H](O)[C@H]4O)C(C)(C)[C@@H]3CC[C@]12C` [ginsenoside Rb1], the effect on infarction ([1]; intravenous 10 mg/kg before permanent occlusion of the middle cerebral artery) is given as “absolutely no effect”, the “reduction of size of the infarction vs control” value ([1]; intravenous 40 mg/kg before permanent occlusion of the middle cerebral artery) is given as “about 14%” and the “reduction of infarction size vs control” value ([1]; single intravenous 10-40 mg/kg after the reperfusion) is given as 12%-35%. For the same compound, the “reduction of infarction size vs control” value ([1]; single intravenous 10-40 mg/kg before ischemia, ischemia/reperfusion model) was 20%-49%, the “healing of the operative dorsal wounds / ill effects” value ([2]; compared with rats administered with physiological saline) was “no such ill effects” and the “motor abilities (BBB scores) at the 7th day after spinal cord injury” value ([2]; ginsenoside Rb1 intravenous 12 μg/day and 60 μg/day) was “significantly ameliorated in a dose-dependent manner”. The “bedsore (decubitus)” value ([2]; ginsenoside Rb1 intravenous 60 μg/day starting 2 hours after spinal cord injury) was “hardly observed”, the “paraplegia of both hindlimbs” value ([2]; ginsenoside Rb1 intravenous 60 μg/day starting 2 hours after spinal cord injury, from 3-4 days after onset) was “gradually ameliorated” and the “paraplegia of both hindlimbs” value ([2]; ginsenoside Rb1 intravenous 60 μg/day starting more than 30 minutes after compression, 1-2 days later) was “significantly ameliorated”. The “difference in size between left and right cerebral hemisphere (brain edema)” value [3] was “no difference in size”, the “cerebral infarct lesions (photographs at 32 days)” value ([3]; all 8 cases) was “obviously reduced” and the LD50 [4] was “approximately 448 mg/kg”.
